Patent US9180111B2, “Reduction in complement activation and inflammation during tissue injury by carotenoids, carotenoid analogs, or derivatives thereof” (Cardax Pharma, Inc., priority 2005, dated 2015)

Columns and labels:
[1] = Determination of aqueous solubility/dispersibility; format: physicochemical
Protocol: (§1) 30.13 mg of 3 was added to 1 mL of USP-purified water. The sample was rotated for 2 hours, then centrifuged for 5 minutes. After centrifuging, solid was visible in the bottom of the tube. A 125-μL aliquot of the solution was then diluted to 25 mL. The sample was analyzed by UV/Vis spectroscopy at 436 nm, and the absorbance was compared to a standard curve compiled from 4 standards of known concentration. The concentration of the original supernatant was calculated to be 2.85 mg/mL and the absorptivity was 36.94 AU*mL/cm*mg. Slight error may have been introduced by the small size of the original aliquot.
as §1, with “Next, 30.80” for “30.13”, “9” for “3”, “411” for “436”, “29.27” for “2.85”, “2.90” for “36.94”

[2] = target: human serum albumin (HSA) (Homo sapiens, UniProt P02768); assay: Plasma-protein binding studies in vitro
Sequence of human serum albumin (HSA) (P02768 25-609): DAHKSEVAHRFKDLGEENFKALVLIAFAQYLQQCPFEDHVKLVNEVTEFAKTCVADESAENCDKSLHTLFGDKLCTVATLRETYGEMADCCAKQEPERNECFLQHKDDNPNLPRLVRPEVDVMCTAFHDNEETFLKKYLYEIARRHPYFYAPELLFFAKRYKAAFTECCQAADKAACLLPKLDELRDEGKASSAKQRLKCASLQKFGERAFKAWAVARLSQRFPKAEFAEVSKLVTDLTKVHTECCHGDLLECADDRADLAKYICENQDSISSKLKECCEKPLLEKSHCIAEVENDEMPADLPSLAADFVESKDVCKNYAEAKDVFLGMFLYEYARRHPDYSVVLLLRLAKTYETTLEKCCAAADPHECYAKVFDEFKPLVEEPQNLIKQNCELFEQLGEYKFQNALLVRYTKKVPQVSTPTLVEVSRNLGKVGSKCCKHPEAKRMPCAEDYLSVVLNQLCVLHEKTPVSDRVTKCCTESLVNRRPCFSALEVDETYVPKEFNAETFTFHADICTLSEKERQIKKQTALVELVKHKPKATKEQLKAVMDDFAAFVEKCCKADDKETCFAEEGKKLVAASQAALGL

| SMILES | solubility in water [1] | binding to human serum albumin [2] |
| --- | --- | --- |
| CC1=C(/C=C/C(C)=C/C=C/C(C)=C/C=C/C=C(C)/C=C/C=C(C)/C=C/C2=C(C)C(=O)[C@@H](O)CC2(C)C)C(C)(C)C[C@H](O)C1=O [astaxanthin, reference compound] | insoluble in water | – |
| CC1=C(/C=C/C(C)=C/C=C/C(C)=C/C=C/C=C(C)/C=C/C=C(C)/C=C/C2=C(C)C(=O)C(OC(=O)CCC(=O)O)CC2(C)C)C(C)(C)CC(OC(=O)CCC(=O)O)C1=O [meso-(3R,3S)-disodium disuccinate astaxanthin derivative] | – | bound immediately and preferentially to human serum albumin |
